Where two headings read alike, the source gives them in different places. Non-standard residues stand in square brackets, D forms with d. Residues, ends and D or L forms follow the SMILES beside them.
Columns and labels:
[1] = test system: hyperalgesia evoked by IL-1β; assay: Modified Randall-Sellito rat paw pressure test, hyperalgesia evoked by IL-1β; type: in vivo; conditions: indomethacin 100 μg ipl 30 minutes before 0.05U IL-1β ipl or ip
Description: The hyperalgesic activity of IL-1β was investigated by a modified Randall-Sellito rat paw pressure test (Ferreira et al, Eur. J. Pharacol. 53, 39-48, 1978).
The IL-1β was given either intraplantar (ipl, injection volume=0.1 ml) or intraperitoneally (ip, injection volume=0.3 ml).
The intensity of hyperalgesia was quantified as the variation of the reaction time (Δ reaction time, sec) obtained by subtracting the value measured 1,2,3 or 4h after administration of the hyperalgesic agent from the pre-injection control reaction time (zero time). The experimenter was unaware of the group treatments.
The vertical bars are standard errors of the means (s.e.m's) of values obtained in groups of 5 rats.
Each symbol or histogram represents the mean response of 5 animals per treatment group. Vertical bars are s.e.m's.
The data are means±s.e.m.'s of 5 animals per treatment group.
Each symbol represents the mean response of 5 animals per treatment group. Vertical bars are s.e.m.'s.
Treatments were given ip, lh before Il-1β, also given ip. There were 5 animals per treatment group.
Delta reaction time was measured 3h after Il-1β administration.
The Control was II-1β (0.05U), given ip.

[2] = test system: hyperalgesia evoked by acetic acid; assay: Contortions (writhing) evoked by acetic acid, Examples 9 and 10; type: in vivo, mice; conditions: Example 10; for total number of contorsions during 20 minutes after ip challenge: control 45.3
Description: (§1) Iloprost is a stable analogue of prostacyclin and has the formula: [drawing 4]
(§2) Example 9 was repeated with some groups of mice given indomethacin at various doses rather than the peptide K(D)PT. A control group of mice received neither indomethacin nor K(D)PT. The data are the total number of contorsions measured during 20 minutes after the ip challenge.

[3] = test system: hyperalgesia evoked by Iloprost; assay: Contortions (writhing) evoked by Iloprost, Examples 9 and 10; type: in vivo, mice; conditions: Example 10, Iloprost 10 μg/kg; for total number of contorsions during 20 minutes after ip challenge: control 39.4
Description: as §1, §2

[4] = test system: human blood mononuclear cells (MNC); assay: PGE2 release by human blood mononuclear cells; type: cell-based
Description: The effect of K(D)PT and indomethacin on PGE2 release by human blood mononuclear cells (MNC) was investigated. The MNC were isolated from buffy coat residues by density gradient centrifugation (Ficoll-hypaque, Sigma) and resuspended in RPMI 1640 culture medium (Gibco)+ 2% inactivated foetal calf serum (Imperial Laboratories). […] Values are means of quadruplicates ±s.e.m.'s. PGE2 concentrations were measured by radioimmunoassay (NEN Research Products).

[5] = test system: hyperalgesia evoked by acetic acid; assay: Contorsions evoked by acetic acid, Example 19; type: in vivo, mice; conditions: for number of contorsions (median), 10 to 20 min after acetic acid: 30 min before acetic acid
Description: The number of contorsions (abdominal constrictions or writhes) was counted in the period between 10 and 20 min after ip challenge with acetic acid by an observer unaware of drug treatment.

[6] = mouse, in vivo

SMILES: COc1ccc2c(c1)c(CC(=O)O)c(C)n2C(=O)c1ccc(Cl)cc1 [Indomethacin, indomethacin]
- effect of pretreatment on hyperalgesic response to IL-1β, contralateral paws (CL) [1]: no effect
- effect of pretreatment on hyperalgesic response to IL-1β, treated paws (I) [1]: markedly attenuated
- total number of contorsions during 20 minutes after ip challenge ([2]; acetic acid .6% 0.1 ml/10 g, 1.25 mg/kg): 34.6
- (-%) reduction of contorsions vs control ([2]; acetic acid .6%, 1.25 mg/kg): 23.6%
- (-%) reduction of contorsions vs control ([2]; acetic acid .6%, 5.0 mg/kg): 46.3%
- total number of contorsions during 20 minutes after ip challenge ([2]; acetic acid .6%, 5.0 mg/kg): 24.3
- (-%) reduction of contorsions vs control ([2]; acetic acid .6%, 20.0 mg/kg): 57.4%
- total number of contorsions during 20 minutes after ip challenge ([2]; acetic acid .6%, 20.0 mg/kg): 19.3
- (-%) reduction of contorsions vs control ([3]; 1.25 mg/kg): 7.6%
- total number of contorsions during 20 minutes after ip challenge ([3]; 1.25 mg/kg): 36.4
- (-%) reduction of contorsions vs control ([3]; 5.0 mg/kg): 26.0%
- total number of contorsions during 20 minutes after ip challenge ([3]; 5.0 mg/kg): 29.2
- (-%) reduction of contorsions vs control ([3]; 20.0 mg/kg): 46.0%
- total number of contorsions during 20 minutes after ip challenge ([3]; 20.0 mg/kg): 21.3
- effect on production of PGE2 / prostaglandin [4]: abolished PGE2 production
- PGE2 release by MNC incubated for 4h with IL-1α (50 U/ml) ([4]; 2 μg/ml, 5.9 micromoles/L, added 45 min before, ethanol control 2.0): 0.03 ± 0.0007 ng/mL
- PGE2 release by MNC incubated for 4h with IL-1β (50 U/ml) ([4]; 2 μg/ml, 5.9 micromoles/L, added 45 min before, ethanol control 2.1): 0.03 ± 0.0005 ng/mL
- PGE2 release by MNC incubated for 4h with E. coli endotoxin (25 pg/ml) ([4]; 2 μg/ml, 5.9 micromoles/L, added 45 min before, ethanol control 3.1): 0.03 ± 0.0004 ng/mL
- PGE2 release by MNC (5 × 10^6 cells/ml) incubated for 4h with Saline control (0.9% w/v) ([4]; 2 μg/ml, 5.9 micromoles/L, ethanol control 1.3): 0.03 ± 0.0002 ng/ml
- % reductions from control values in mice injected with saline ([5]; 2.5 mg/kg ip): -37%
- number of contorsions (median), 10 to 20 min after acetic acid ([5]; 2.5 mg/kg ip): 16.5
- % reductions from control values in mice injected with saline ([5]; 5 mg/kg ip): -61.5%
- number of contorsions (median), 10 to 20 min after acetic acid ([5]; 5 mg/kg ip): 10
- % reductions from control values in mice injected with saline ([5]; 10 mg/kg ip): -61.5%
- number of contorsions (median), 10 to 20 min after acetic acid ([5]; 10 mg/kg ip): 10
- gastric erosions, % of the mice [6]: 100%
- gastric lesions [6]: caused gastric lesions

SMILES: NCCCC[C@H](N)C(=O)N1CCC[C@@H]1C(=O)O [K(D)P, Lys-D-Pro] (H-Lys-[dP]-OH)
- % reductions from control values in mice injected with saline ([5]; 5 mg/kg ip): -58%
- number of contorsions (median), 10 to 20 min after acetic acid ([5]; 5 mg/kg ip): 11
- % reductions from control values in mice injected with saline ([5]; 5 mg/kg po): -10%
- number of contorsions (median), 10 to 20 min after acetic acid ([5]; 5 mg/kg po): 19
- % reductions from control values in mice injected with saline ([5]; 10 mg/kg po): -36%
- number of contorsions (median), 10 to 20 min after acetic acid ([5]; 10 mg/kg po): 13.5
- % reductions from control values in mice injected with saline ([5]; 20 mg/kg ip): -77%
- number of contorsions (median), 10 to 20 min after acetic acid ([5]; 20 mg/kg ip): 6
- % reductions from control values in mice injected with saline ([5]; 20 mg/kg po): -38%
- number of contorsions (median), 10 to 20 min after acetic acid ([5]; 20 mg/kg po): 14
- analgesic activity against hyperalgesia evoked by acetic acid, given ip ([5]; ip): effective analgesic
- analgesic activity against hyperalgesia evoked by acetic acid, given orally ([5]; po): effective analgesic

SMILES: C[C@@H](O)[C@H](NC(=O)[C@H]1CCCN1C(=O)[C@@H](N)CCCCN)C(=O)O [K(D)PT, Lys-D-Pro-Thr] (H-Lys-[dP]-Thr-OH)
- gastric lesions (Gastric lesions in mice; 32 mg/kg): No lesions were observed
- gastric lesions (Gastric lesions in mice; mice of Example 10): did not
